Results on 10 molecules are retold here after ChEMBL document CHEMBL1201862, “PubChem BioAssay data set” (2004).

Holding throughout (test): NCI tumour cell line growth inhibition, 48 h
For experiment [1], the system named is NCI-H226.
For experiment [2], the system named is A549.
Experiment [3] concerns SN12C.
The subject of experiment [4] is SF-295.
Experiment [5] deals with A498.
Experiment [6] concerns NCI/ADR-RES.
The subject of experiment [7] is COLO 205.
Experiment [8] relates to HT-29.
For experiment [9], the system named is RPMI-8226.
For experiment [10], the system named is Hs-578T.
The subject of experiment [11] is SW-620.
Experiment [12] concerns SK-OV-3.
The subject of experiment [13] is SF-539.
The subject of experiment [14] is K562.
Experiment [15] has as its system OVCAR-8.
In experiment [16] the test system is M14.
Experiment [17] deals with MOLT-4.
Experiment [18] has as its system 786-0.
Experiment [19] deals with NCI-H460.
Experiment [20] has as its system KM12.

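Test compounds were applied to cells in 96-well plates for 48 hours at 5 doses. At the GI50, growth is halved.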 Activity calls are given as the source filed them. Cut-off read from the data, not from the text of the source: active = GI50 up to about 1.1 µM and inactive = higher. Bounds are passed on as bounds.

Regarding `O=C(O)C1C2CCC(C2)C1c1ccccc1` (stereo not given), the GI50 in [1], in experiment [2], in experiment [3], in [4], in [5] and in experiment [6] was > 100 µM (inactive) in each case. The GI50 in experiment [7], in experiment [8], in [9], in experiment [10], in experiment [11] and in [12] was > 100 µM (inactive) in each case. Besides, the GI50 in experiment [13], in experiment [14], in experiment [15], in [16], in [17] and in [18] was > 100 µM (inactive) in each case. For the same molecule, the GI50 in [19] and in experiment [20] was > 100 µM (inactive) throughout.
For `COc1ccc(OC)c(NC(=O)c2c(Cl)c(Cl)c(Cl)c(Cl)c2-c2nc3ccccc3[nH]2)c1`, the GI50 is > 100 µM (inactive) in [1]; > 100 µM (inactive) in experiment [2]; 80.4 µM (inactive) in experiment [3]; > 100 µM (inactive) in [4]; > 100 µM (inactive) in experiment [5]; > 100 µM (inactive) in experiment [6]. In addition, the GI50 in experiment [7] is > 100 µM (inactive); in [8], > 100 µM (inactive); in [9], 45.4 µM (inactive); in [10], > 100 µM (inactive); in experiment [11] it was > 100 µM (inactive); in [12], > 100 µM (inactive). Also, the GI50 in experiment [13] is > 100 µM (inactive); in experiment [14], > 100 µM (inactive); in [15] it was 56.9 µM (inactive); in experiment [16], > 100 µM (inactive); in experiment [17], 56.2 µM (inactive); in [18] it was > 100 µM (inactive). In addition, the GI50 in [19] and in experiment [20] was > 100 µM (inactive) throughout.
As for `[O-]c1c2cc(-[n+]3c(-c4ccccc4)cc(-c4ccccc4)cc3-c3ccccc3)cc1CO[C@@H](c1ccccc1)[C@H](c1ccccc1)OCCOCCO[C@@H](c1ccccc1)[C@H](c1ccccc1)OC2`, the GI50 was 0.0885 µM (active) in experiment [1]; 0.0451 µM (active) in [2]; 0.0398 µM (active) in [3]; 0.0719 µM (active) in experiment [4]; 0.5 µM (active) in [5]; 1.14 µM (inactive) in experiment [6]. Besides, the GI50 in experiment [7] was 0.0195 µM (active); in [8], 0.0386 µM (active); in [9], 0.0176 µM (active); in [10], 0.0652 µM (active); in experiment [11] it was 0.0562 µM (active); in experiment [12], 0.0502 µM (active). The GI50 is 0.408 µM (active) in experiment [13]; 0.0284 µM (active) in [14]; 0.0351 µM (active) in experiment [15]; 0.0687 µM (active) in [16]; 0.0397 µM (active) in experiment [17]; 0.0448 µM (active) in experiment [18]. In addition, the GI50 in experiment [19] is 0.0363 µM (active); in [20], 0.0444 µM (active).
Consider `CN(C)Cc1ccc(-c2cc3onc(-c4ccccc4)c3c(=O)n2C)cc1`, for which the GI50 is > 100 µM (inactive) in experiment [1]; 16.4 µM (inactive) in experiment [2]; 55.6 µM (inactive) in experiment [3]; 22.9 µM (inactive) in experiment [4]; 22.6 µM (inactive) in [5]; 41.5 µM (inactive) in experiment [6]. For the same molecule, the GI50 in [7] was 20 µM (inactive); in experiment [8], 11 µM (inactive); in [9] it was 19.4 µM (inactive); in experiment [10] it was 19.6 µM (inactive); in experiment [11], 21.3 µM (inactive); in experiment [12], 48.8 µM (inactive). Further, the GI50 in [13] was 20.3 µM (inactive); in [14], 17.7 µM (inactive); in experiment [15] it was 47.5 µM (inactive); in experiment [16] it was 15.1 µM (inactive); in [17] it was 17.8 µM (inactive); in experiment [18], 17.3 µM (inactive). Further, the figures for the GI50 in [19] and in [20] were 17.5 µM (inactive) and 19.5 µM (inactive), respectively.
Regarding `O=C(c1cc2c(c3ccccc13)NC1(CCCCC1)N=C2C(F)(F)F)C(F)(F)F`, the GI50 is 4.41 µM (inactive) in experiment [1]; 4.35 µM (inactive) in experiment [2]; 3.66 µM (inactive) in [3]; 3.2 µM (inactive) in experiment [4]; 7.83 µM (inactive) in experiment [5]; 4.53 µM (inactive) in [6]. Moreover, the GI50 in experiment [7] was 5.57 µM (inactive); in [8], 3.66 µM (inactive); in [9] it was 3.47 µM (inactive); in experiment [10], 6.32 µM (inactive); in experiment [11], 4.7 µM (inactive); in experiment [12], 5.61 µM (inactive). Further, the GI50 was 2.53 µM (inactive) in experiment [13]; 4.3 µM (inactive) in experiment [14]; 4.23 µM (inactive) in experiment [15]; 6.17 µM (inactive) in experiment [16]; 3.29 µM (inactive) in [17]; 3.82 µM (inactive) in [18]. Besides, the GI50 in experiment [19] is 3.27 µM (inactive); in [20], 3.42 µM (inactive).
In the case of `CN(C)NC1=NS(=O)(=O)c2cc3c(=O)n(C)[nH]c3cc2S1`, the GI50 in [1], in experiment [2], in [3], in experiment [4], in experiment [5] and in [6] was > 10 µM (inactive) each time. Also, the GI50 in experiment [7], in [8], in experiment [9], in experiment [10], in experiment [11] and in [12] was > 10 µM (inactive) in each case. Moreover, the GI50 in [13], in experiment [14], in [15], in experiment [16], in experiment [17] and in [18] was > 10 µM (inactive) in each case. Further, the GI50 in experiment [19] and in experiment [20] was > 10 µM (inactive) each time.
Regarding `C/C(=N/NC(=S)N(C)CCc1ccccn1)c1cnccn1`, the GI50 in experiment [1] was < 0.01 µM (active); in [2], 0.078 µM (active); in [3], < 0.01 µM (active); in [4], 0.177 µM (active); in experiment [5], 17.7 µM (inactive); in [6], < 0.01 µM (active). Further, the GI50 is < 0.01 µM (active) in experiment [7]; < 0.01 µM (active) in [8]; < 0.01 µM (active) in experiment [9]; 2.63 µM (inactive) in [10]; < 0.01 µM (active) in experiment [11]; 0.0235 µM (active) in experiment [12]. Further, the GI50 was 0.118 µM (active) in experiment [13]; < 0.01 µM (active) in [14]; < 0.01 µM (active) in experiment [15]; < 0.01 µM (active) in experiment [16]; < 0.01 µM (active) in experiment [17]; 0.0977 µM (active) in experiment [18]. For the same molecule, the GI50 is 0.047 µM (active) in experiment [19] and 0.0406 µM (active) in [20].
On to `COc1cc(COC(=O)N[C@H](C(=O)O)C(C)(C)C)c([N+](=O)[O-])cc1OC`, for which the GI50 in experiment [1], in experiment [2], in [3], in experiment [4], in [5] and in [6] was > 100 µM (inactive) throughout. Further, the GI50 in experiment [7], in experiment [8], in experiment [9], in [10], in [11] and in experiment [12] was > 100 µM (inactive) throughout. Besides, the GI50 in [13], in experiment [14], in [15], in experiment [16], in experiment [17] and in experiment [18] was > 100 µM (inactive) each time. The GI50 in [19] and in experiment [20] was > 100 µM (inactive) each time.
For `CCOP(=O)(O)C(Nc1ccc(/N=N/c2ccccc2)cc1)c1cccc(C(Nc2ccc(/N=N/c3ccccc3)cc2)P(=O)(O)OCC)c1` (stereo not given), the GI50 in experiment [1] is > 100 µM (inactive); in [2] it was 34.2 µM (inactive); in experiment [3] it was 52 µM (inactive); in experiment [4], 24 µM (inactive); in experiment [5] it was 23 µM (inactive); in experiment [6], 76.9 µM (inactive). The GI50 in experiment [7] is 21.6 µM (inactive); in experiment [8], 20.1 µM (inactive); in experiment [9], 23.2 µM (inactive); in experiment [10], 38.7 µM (inactive); in experiment [11], 35.2 µM (inactive); in [12], 81.3 µM (inactive). Besides, the GI50 in [13] is 33.9 µM (inactive); in experiment [14], 19 µM (inactive); in experiment [15], 55 µM (inactive); in experiment [16], 40.6 µM (inactive); in experiment [17] it was 16.7 µM (inactive); in experiment [18], 60 µM (inactive). In addition, the GI50 was 33.3 µM (inactive) in experiment [19] and 32.6 µM (inactive) in experiment [20].
`Nc1ccc(S2(c3ccc(N)cc3)C=C(c3ccccc3)C(c3ccccc3)=C2)cc1`: the GI50 in [1] was > 21.8 µM (inactive); in experiment [2], > 29.4 µM (inactive); in [3], > 25.3 µM (inactive); in [4], 16.4 µM (inactive); in experiment [5] it was > 29.4 µM (inactive); in [6] it was > 35.1 µM (inactive). Also, the GI50 was > 45 µM (inactive) in experiment [7]; > 44.7 µM (inactive) in experiment [8]; > 64 µM (inactive) in [9]; > 100 µM (inactive) in [10]; > 57.7 µM (inactive) in [11]; > 26.9 µM (inactive) in experiment [12]. For the same molecule, the GI50 was > 25.5 µM (inactive) in experiment [13]; > 46.9 µM (inactive) in experiment [14]; > 26.4 µM (inactive) in [15]; > 72.8 µM (inactive) in experiment [16]; > 73.8 µM (inactive) in experiment [17]; 24 µM (inactive) in [18]. Also, the GI50 was > 22.4 µM (inactive) in experiment [19] and > 54.7 µM (inactive) in experiment [20].
